Laboratory results as given in patent US8415351B2 (priority 2007, dated 2013).

Tests used:
[1] = biological target: T1, HCV polymerase 1A (Δ21 NS5B, H77) (Hepatitis C virus genotype 1a, UniProt P27958); assay: biochemical; details: IC50 1a
T1 construct: 20 to 50 nM Δ21 NS5B
Procedure, shortened: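 Radiometric assay with Δ21 NS5B (H77): 20 μM CTP, 20 μM ATP, 1 μM ^3H-UTP, 5 nM template RNA, 2–4 h at room temperature. RNA precipitated with spermine, filter-captured and counted. IC50 from non-linear fit of retained cpm vs inhibitor concentration (tight-binding equation).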

[2] = biological target: T2, HCV polymerase 1B (Δ21 NS5B, BK) (Hepatitis C virus genotype 1b, UniProt P26663); assay: biochemical
T2 construct: 20 to 50 nM Δ21 NS5B
Procedure, shortened: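 Δ21 NS5B (genotype 1b, BK […]) preincubated 15 min RT with inhibitor, 2 mM MnCl2, pH 7.4, 60–125 μM GTP; started with 20 μM CTP/ATP, 1 μM 3H-UTP, 5 nM template RNA, run 2–4 h RT. Spermine-precipitated RNA filter-captured, scintillation counted; IC50 from tight-binding (Morrison) fit.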

[3] = tested on: genotype 1a-H77 subgenomic replicon cell line; assay: microbe, parasite or virus in culture; type: cell-based, HCV; details: Hepatitis C virus, read-out: EC50 1a
[4] = tested on: genotype 1b-Con1 subgenomic replicon cell line; assay: microbe, parasite or virus in culture; type: cell-based, HCV; details: Hepatitis C virus, read-out: EC50 1b

T1 sequence (P27958 2421-2990, stated change not applied): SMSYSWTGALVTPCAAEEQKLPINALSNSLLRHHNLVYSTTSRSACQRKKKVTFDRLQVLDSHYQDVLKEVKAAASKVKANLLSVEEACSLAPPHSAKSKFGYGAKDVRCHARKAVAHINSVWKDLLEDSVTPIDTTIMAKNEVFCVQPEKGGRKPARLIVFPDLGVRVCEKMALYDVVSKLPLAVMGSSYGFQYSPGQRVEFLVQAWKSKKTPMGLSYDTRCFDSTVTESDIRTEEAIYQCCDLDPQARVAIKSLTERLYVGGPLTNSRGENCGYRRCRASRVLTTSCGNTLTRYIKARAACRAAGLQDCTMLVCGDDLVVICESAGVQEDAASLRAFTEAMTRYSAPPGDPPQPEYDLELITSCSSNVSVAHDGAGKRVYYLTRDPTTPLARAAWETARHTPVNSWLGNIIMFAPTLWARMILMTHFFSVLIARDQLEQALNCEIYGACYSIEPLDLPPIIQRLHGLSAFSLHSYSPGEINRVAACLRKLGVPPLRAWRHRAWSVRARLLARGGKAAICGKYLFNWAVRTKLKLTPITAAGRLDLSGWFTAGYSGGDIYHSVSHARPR
T2 sequence (P26663 2420-2989, stated change not applied): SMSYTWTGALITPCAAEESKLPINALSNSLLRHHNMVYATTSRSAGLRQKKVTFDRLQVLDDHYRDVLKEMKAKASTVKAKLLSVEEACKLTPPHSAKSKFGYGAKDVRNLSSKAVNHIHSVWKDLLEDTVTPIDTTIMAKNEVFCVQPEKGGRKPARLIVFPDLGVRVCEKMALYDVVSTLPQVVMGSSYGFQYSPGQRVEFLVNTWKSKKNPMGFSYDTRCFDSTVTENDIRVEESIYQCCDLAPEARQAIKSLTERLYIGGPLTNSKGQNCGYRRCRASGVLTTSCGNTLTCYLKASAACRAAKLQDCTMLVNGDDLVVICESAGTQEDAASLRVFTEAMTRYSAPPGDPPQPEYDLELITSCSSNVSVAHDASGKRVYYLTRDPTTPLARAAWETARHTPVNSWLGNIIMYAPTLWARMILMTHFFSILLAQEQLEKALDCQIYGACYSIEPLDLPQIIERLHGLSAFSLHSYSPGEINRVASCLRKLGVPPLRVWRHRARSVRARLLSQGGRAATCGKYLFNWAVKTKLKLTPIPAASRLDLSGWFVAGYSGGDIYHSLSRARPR

Row | Structure (SMILES) | IC50 [1] | IC50 [2] | EC50 [3] | EC50 [4]
1 | COc1c(C#Cc2ccc(NS(C)(=O)=O)c(F)c2Cl)cc(N2CCC(=O)NC2=O)cc1C(C)(C)C [IA-L2-1.21, N-(4-((3-tert-butyl-5-(2,4-dioxotetrahydropyrimidin-1(2H)-yl)-2-methoxyphenyl)ethynyl)-3-chloro-2-fluorophenyl)methanesulfonamide] | < 0.01 µM | 0.01 to 0.1 µM | 0.01 to 0.1 µM | < 0.01 µM
2 | COc1c(-c2ccc(/C=N/NS(C)(=O)=O)cc2)cc(N2CCC(=O)NC2=O)cc1C(C)(C)C [IA-L0-1.1, (E)-N′-((3′-tert-butyl-5′-(2,4-dioxotetrahydropyrimidin-1(2H)-yl)-2′-methoxybiphenyl-4-yl)methylene)methanesulfonohydrazide] | < 0.01 µM | 0.01 to 0.1 µM | 0.1 to 1 µM | < 0.01 µM
3 | CN(C(=O)c1cc(N2CCC(=O)NC2=O)cc(C(C)(C)C)c1O)c1ccc(NS(C)(=O)=O)cc1 [IA-L3-1.2, 3-tert-butyl-5-(2,4-dioxotetrahydropyrimidin-1(2H)-yl)-2-hydroxy-N-methyl-N-(4-(methyl-sulfonamido)phenyl)benzamide] | > 1 µM | 0.01 to 0.1 µM | > 1 µM | > 1 µM
4 | COc1c(CNc2ccc(NS(C)(=O)=O)cc2)cc(N2CCC(=O)NC2=O)cc1C(C)(C)C [IA-L9-1.4, N-(4-(3-tert-butyl-5-(2,4-dioxotetrahydropyrimidin-1(2H)-yl)-2-methoxybenzylamino)phenyl)methanesulfonamide] | 0.01 to 0.1 µM | 0.1 to 1 µM | > 1 µM | 0.1 to 1 µM
5 | Cc1cc(NS(C)(=O)=O)ccc1C#Cc1cc(N2CCC(=O)NC2=O)cc(C(C)(C)C)c1 [IA-L2-1.2, N-(4-((3-tert-butyl-5-(2,4-dioxotetrahydropyrimidin-1(2H)-yl)phenyl)ethynyl)-3-methyl-phenyl)methanesulfonamide] | < 0.01 µM | < 0.01 µM | 0.01 to 0.1 µM | 0.01 to 0.1 µM
6 | COc1c(C(=O)N(C)c2ccc(NS(C)(=O)=O)cc2)cc(N2CCC(=O)NC2=O)cc1C(C)(C)C [IA-L3-1.27, 3-tert-butyl-5-(2,4-dioxotetrahydropyrimidin-1(2H)-yl)-2-methoxy-N-methyl-N-(4-(methylsulfonamido)phenyl)benzamide] | 0.1 to 1 µM | 0.1 to 1 µM | > 1 µM | > 1 µM
7 | COc1c(-c2cc(F)c(/C=N/NS(C)(=O)=O)c(F)c2)cc(N2CCC(=O)NC2=O)cc1C(C)(C)C [IA-L0-1.3, (E)-N′-((3′-tert-butyl-5′-(2,4-dioxotetrahydropyrimidin-1(2H)-yl)-3,5-difluoro-2′-methoxybiphenyl-4-yl)methylene)methanesulfonohydrazide] | 0.1 to 1 µM | 0.1 to 1 µM | 0.1 to 1 µM | 0.1 to 1 µM
8 | CCc1cc(N2CCC(=O)NC2=O)cc(C(=O)Nc2ccc(NS(C)(=O)=O)cc2)c1O [IA-L3-1.113, 5-(2,4-dioxotetrahydropyrimidin-1(2H)-yl)-3-ethyl-2-hydroxy-N-(4-(methylsulfonamido)phenyl)benzamide] | > 1 µM | > 1 µM | > 1 µM | > 1 µM
9 | COc1cc(NS(C)(=O)=O)ccc1C#Cc1cc(N2CCC(=O)NC2=O)cc(C(C)(C)C)c1OC [IA-L2-1.16, N-(4-((3-tert-butyl-5-(2,4-dioxotetrahydropyrimidin-1(2H)-yl)-2-methoxyphenyl)ethynyl)-3-methoxyphenyl)methanesulfonamide] | < 0.01 µM | 0.01 to 0.1 µM | 0.01 to 0.1 µM | < 0.01 µM
10 | COc1c(C#Cc2ccc(NS(C)(=O)=O)cc2NC(C)=O)cc(-n2ccc(=O)[nH]c2=O)cc1C(C)(C)C [IB-L2-1.12, N-(2-((3-tert-butyl-5-(2,4-dioxo-3,4-dihydropyrimidin-1(2H)-yl)-2-methoxyphenyl)ethynyl)-5-(methylsulfonamido)phenyl)acetamide] | 0.01 to 0.1 µM | 0.01 to 0.1 µM | 0.1 to 1 µM | 0.01 to 0.1 µM
11 | COc1c(-c2ccc3cc(CNS(C)(=O)=O)sc3c2)cc(-n2ccc(=O)[nH]c2=O)cc1C(C)(C)C [IB-L0-2.40, N-((6-(3-tert-butyl-5-(2,4-dioxo-3,4-dihydropyrimidin-1(2H)-yl)-2-methoxyphenyl)benzo[b]thiophen-2-yl)methyl)methanesulfonamide] | 0.1 to 1 µM | 0.1 to 1 µM | > 1 µM | 0.1 to 1 µM
12 | CC(C)(C)c1cc(NC(=O)c2ccc(NS(C)(=O)=O)cc2)cc(N2CCC(=O)NC2=O)c1 [IA-L4-1.1, N-(3-tert-butyl-5-(2,4-dioxotetrahydropyrimidin-1(2H)-yl)phenyl)-4-(methylsulfonamido) benzamide] | 0.1 to 1 µM | 0.1 to 1 µM | > 1 µM | > 1 µM
13 | COc1c(C#Cc2ccccc2)cc(N2CCC(=O)NC2=O)cc1C(C)(C)C [IA-L2-1.4, 1-(3-tert-butyl-4-methoxy-5-(phenylethynyl)phenyl)dihydropyrimidine-2,4(1H,3H)-dione] | 0.1 to 1 µM | 0.1 to 1 µM | 0.1 to 1 µM | 0.1 to 1 µM
14 | COc1c(C(=O)Nc2cc(CN(C)S(C)(=O)=O)cs2)cc(N2CCC(=O)NC2=O)cc1C(C)(C)C [IA-L3-1.97, 3-tert-butyl-5-(2,4-dioxotetrahydropyrimidin-1(2H)-yl)-2-methoxy-N-(4-((N-methylmethylsulfonamido)methyl)thiophen-2-yl)benzamide] | > 1 µM | > 1 µM | > 1 µM | > 1 µM
15 | COc1c(-c2ccc3c(CNS(C)(=O)=O)coc3c2)cc(-n2ccc(=O)[nH]c2=O)cc1C(C)(C)C [IB-L0-2.18, N-((6-(3-tert-butyl-5-(2,4-dioxo-3,4-dihydropyrimidin-1(2H)-yl)-2-methoxyphenyl)benzofuran-3-yl)methyl)methanesulfonamide] | < 0.01 µM | 0.01 to 0.1 µM | 0.1 to 1 µM | 0.01 to 0.1 µM
16 | COc1c(C(=O)Nc2ccc(NS(=O)(=O)CC(F)(F)F)cc2)cc(N2CCC(=O)NC2=O)cc1C(C)(C)C [IA-L3-1.55, 3-tert-butyl-5-(2,4-dioxotetrahydropyrimidin-1(2H)-yl)-2-methoxy-N-(4-(2,2,2-trifluoro-ethylsulfonamido)phenyl)benzamide] | 0.1 to 1 µM | 0.1 to 1 µM | > 1 µM | > 1 µM
17 | COc1c(C(=O)Nc2cccc(CNS(C)(=O)=O)c2)cc(N2CCC(=O)NC2=O)cc1C(C)(C)C [IA-L3-1.120, 3-tert-butyl-5-(2,4-dioxotetrahydropyrimidin-1(2H)-yl)-2-methoxy-N-(3-(methylsulfonamidomethyl)phenyl)benzamide] | 0.1 to 1 µM | 0.1 to 1 µM | > 1 µM | > 1 µM
18 | CC(C)(C)c1cc(N2CCC(=O)NC2=O)cc(C(=O)Nc2ccccc2S(C)(=O)=O)c1O [IA-L3-1.20, 3-tert-butyl-5-(2,4-dioxotetrahydropyrimidin-1(2H)-yl)-2-hydroxy-N-(2-(methylsulfonyl)phenyl)benzamide] | > 1 µM | 0.01 to 0.1 µM | > 1 µM | > 1 µM
19 | COc1c(C#Cc2ccc(NS(C)(=O)=O)cc2C(F)(F)F)cc(N2CCC(=O)NC2=O)cc1C(C)(C)C [IA-L2-1.18, N-(4-((3-tert-butyl-5-(2,4-dioxotetrahydropyrimidin-1(2H)-yl)-2-methoxyphenyl)ethynyl)-3-(trifluoromethyl)phenyl)methanesulfonamide] | < 0.01 µM | < 0.01 µM | 0.01 to 0.1 µM | < 0.01 µM
20 | COc1c(N(C)C(=O)c2ccc(NS(C)(=O)=O)cc2)cc(N2CCC(=O)NC2=O)cc1C(C)(C)C [IA-L4-1.7, N-(3-tert-butyl-5-(2,4-dioxotetrahydropyrimidin-1(2H)-yl)-2-methoxyphenyl)-N-methyl-4-(methylsulfonamido)benzamide] | 0.1 to 1 µM | > 1 µM | > 1 µM | > 1 µM
21 | CC(C)(C)OC(=O)N(Cc1csc(NC(=O)c2cc(N3CCC(=O)NC3=O)cc(C(C)(C)C)c2O)c1)S(C)(=O)=O [IA-L3-1.98, tert-butyl (5-(3-tert-butyl-5-(2,4-dioxotetrahydropyrimidin-1(2H)-yl)-2-hydroxybenzamido)thiophen-3-yl)methyl(methylsulfonyl)carbamate] | > 1 µM | 0.1 to 1 µM | > 1 µM | 0.1 to 1 µM
22 | CC(C)(C)c1cc(N2CCC(=O)NC2=O)cc(C(=O)Nc2ccc(NS(=O)(=O)c3ccccc3)cc2)c1O [IA-L3-1.10, 3-tert-butyl-5-(2,4-dioxotetrahydropyrimidin-1(2H)-yl)-2-hydroxy-N-(4-(phenylsulfon-amido)phenyl)benzamide] | 0.01 to 0.1 µM | 0.01 to 0.1 µM | 0.1 to 1 µM | 0.1 to 1 µM
23 | CN(Cc1csc(NC(=O)c2cc(N3CCC(=O)NC3=O)cc(C(C)(C)C)c2O)c1)S(C)(=O)=O [IA-L3-1.95, 3-tert-butyl-5-(2,4-dioxotetrahydropyrimidin-1(2H)-yl)-2-hydroxy-N-(4-((N-methylmethylsulfonamido)methyl)thiophen-2-yl)benzamide] | 0.1 to 1 µM | 0.01 to 0.1 µM | > 1 µM | > 1 µM
